# Experiments:
# Caco-2 cells [1] = system: Caco-2 cells
# Caco-2 cells [2] = details: cited from earlier work
# [3] = cited from earlier work
# [4] = system: colon-derived human cells (NCM460 and HT-29MTX); details: cited from earlier work
# [5] = set-up: method as in PMID 25283090; details: in vivo studies; cited from earlier work
# [6] = cited from earlier work; remark: listed apart in the source
smiles,measurement,setting,value
"CC(=O)[O-].CC(=O)[O-].[Cd+2] [Cd, cadmium acetate]",decrease in the permeability as measured by Papp,Caco-2 cells [1],6.3%
same,decrease of Papp values,Caco-2 cells [1],6.3%
same,Cd accumulated in the Caco-2 cells,Caco-2 cells [2]; Caco-2,6-12%
same,lag time during which transport into the basolateral compartment was undetectable,Caco-2 cells [2],about 60 min
same,reduction of ML in the basolateral chamber,Caco-2 cells [2],90%
"O=S(=O)(O)CC(S)CS (stereo not shown) [DMPS, 2,3-dimercapto-1-propanesulfonic acid]",Properties: water solubility,[3],C3H8O3S3 M.wt; 188.289g/mol Water soluble
"O=[As]O[As]=O (stereo not shown) [As, arsenic oxide (As III)]",decrease of Papp values,[4],63%
same,decrease in the permeability as measured by Papp,Caco-2 cells [1],7.5%
same,decrease of Papp values,Caco-2 cells [1],7.5%
same,Papp,"Caco-2 cells [2]; at 2 h, concentration 67 μM",4.6 ± 0.3 × 10^–6 cm/s
"[Cl][Hg][Cl] [Hg, mercuric chloride]",absorption in vivo,[5],< 15%
same,decrease in the permeability as measured by Papp,Caco-2 cells [1],8.2%
same,decrease of Papp values,Caco-2 cells [1],7.9%
same,cell retention,Caco-2 cells [2],49–69%
same,cellular accumulation,Caco-2 cells [2],21–51%
same,transport to the basal compartment,Caco-2 cells [2],3–14%
same,transport to the basolateral side,Caco-2 cells [2],9–20%
[CH3][Hg] [CH3Hg],decrease in the cellular accumulation,Caco-2 cells [2],up to 55%
"CC(=O)[O-].CC(=O)[O-].[Pb+2] [Pb, lead acetate]",absolute bioavailability,[6]; estimated from Pb concentration in blood,2.7%
same,fish meal Pb found in kidney,[6]; kidney,1.4%
same,fish meal Pb found in liver,[6]; liver,0.9%
same,decrease in the permeability as measured by Papp,Caco-2 cells [1],7.9%
same,decrease of Papp values,Caco-2 cells [1],8.2%
same,Pb absorbed (associated and transported by Caco-2 cells),Caco-2 cells [2]; Caco-2,30%
same,Pb moved through the single layer,Caco-2 cells [2],3%
same,Pb retained by the cells,Caco-2 cells [2],approximately 27%
same,reduction of ML in the basolateral chamber,Caco-2 cells [2],50%
[Cl][Cd][Cl] [CdCl2],Cd taken up (retained in the cells and transferred through cells) by Caco-2 cells,Caco-2 cells [2]; Caco-2,25%
